One compound from patent publication US10633397B2, “Substituted polycyclic pyridone derivatives and prodrugs thereof” (priority 2015, dated 2020) can be followed below.

Data set [1] can be described thus: Metabolism stability test. The following applies: human liver microsomes, 30 minutes, 37° C., 2 μmol/L of test compound. It is filed as in vitro ADME. How it is done:
Test Example 5: Metabolism Stability Test
Using commercially available pooled human hepatic microsomes, a compound of the present invention was reacted for a constant time, and a remaining rate was calculated by comparing a reacted sample and an unreacted sample, thereby, a degree of metabolism in liver was assessed.
A reaction was performed (oxidative reaction) at 37° C. for 0 minute or 30 minutes in the presence of 1 mmol/L NADPII in 0.2 mL of a buffer (50 mmol/L Tris-HCl pH 7.4, 150 mmol/L potassium chloride, 10 mmol/L magnesium chloride) containing 0.5 mg protein/mL of human liver microsomes. After the reaction, 50 μL of the reaction solution was added to 100 μL of a methanol/acetonitrile=1/1 (v/v), mixed and centrifuged at 3000 rpm for 15 minutes. The compound of the present invention in the supernatant was quantified by LC/MS/MS or Solid Phase Extraction (SPE)/MS, and a remaining amount of the compound of the present invention after the reaction was calculated, letting a compound amount at 0 minute reaction time to be 100%. Hydrolysis reaction was performed in the absence of NADPII and glucuronidation reaction was in the presence of 5 mM UDP-glucuronic acid in place of NADPH, followed by similar operations.
For orientation: Microsomes from liver hold many membrane-bound enzymes, among them those of drug oxidation.

A further data set deals with T1, CYP2C19 (Homo sapiens, UniProt P33261).
T1 construct: Using commercially available pooled human hepatic microsome; from tissue
T1 sequence (P33261 whole entry): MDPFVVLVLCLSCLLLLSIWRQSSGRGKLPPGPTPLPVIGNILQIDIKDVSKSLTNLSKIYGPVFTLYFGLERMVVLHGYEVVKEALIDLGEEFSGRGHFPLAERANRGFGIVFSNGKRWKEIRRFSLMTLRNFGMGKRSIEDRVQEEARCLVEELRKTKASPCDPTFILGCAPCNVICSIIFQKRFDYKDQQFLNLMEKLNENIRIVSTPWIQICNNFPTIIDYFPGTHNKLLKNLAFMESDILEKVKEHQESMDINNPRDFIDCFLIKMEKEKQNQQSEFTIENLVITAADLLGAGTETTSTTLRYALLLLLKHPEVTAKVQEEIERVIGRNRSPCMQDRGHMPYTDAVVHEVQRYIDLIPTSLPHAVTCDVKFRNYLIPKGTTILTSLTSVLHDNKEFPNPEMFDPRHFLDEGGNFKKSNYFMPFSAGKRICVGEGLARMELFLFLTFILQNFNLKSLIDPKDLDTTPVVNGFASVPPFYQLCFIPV
Kind of data set: biochemical. It is filed as in vitro ADME. From the text:
(§1) Test Example 3: CYP Inhibition Test
(§2) Using commercially available pooled human hepatic microsome, and employing, as markers, 7-ethoxyresorufin O-deethylation (CYP1A2), tolbutamide methyl-hydroxylation (CYP2C9), mephenytoin 4′-hydroxylation (CYP2C19), dextromethorphan O-demethylation (CYP2D6), and terfenedine hydroxylation (CYP3A4) as typical substrate metabolism reactions of human main five CYP enzyme forms (CYP1A2, 2C9, 2C19, 2D6, 3A4), an inhibitory degree of each metabolite production amount by a compound of the present invention was assessed.
(§3) The reaction conditions were as follows: substrate, 0.5 μmol/L ethoxyresorufin (CYP1A2), 100 μmol/L tolbutamide (CYP2C9), 50 μmol/L S-mephenytoinmephenitoin (CYP2C19), 5 μmol/L dextromethorphan (CYP2D6), 1 μmol/L terfenedine (CYP3A4); reaction time, 15 minutes; reaction temperature, 37° C.; enzyme, pooled human hepatic microsome 0.2 mg protein/mL; concentration of a compound of the present invention, 1, 5, 10, 20 μmol/L (four points).
(§4) Each five kinds of substrates, human hepatic microsome, or a compound of the present invention in 50 mmol/L Hepes buffer as a reaction solution was added to a 96-well plate at the composition as described above, NADPH, as a cofactor was added to initiate metabolism reactions as markers and, after the incubation at 37° C. for 15 minutes, a methanol/acetonitrile=1/1 (v/v) solution was added to stop the reaction. After the centrifugation at 3000 rpm for 15 minutes, resorufin (CYP1A2 metabolite) in the supernatant was quantified by a fluorescent multilabel counter and toltributamide hydroxide (CYP2C9P metabolite), mephenytoin 4′ hydroxide (CYP2C19 metabolite), […] (CYP2D6 metabolite), and terfenadine alcohol (CYP3A4 metabolite) were quantified by LC/MS/MS.

Another data set concerns the target T2, CYP1A2 (Homo sapiens, UniProt P05177).
T2 construct: Using commercially available pooled human hepatic microsome; from tissue
T2 sequence (P05177 1-516): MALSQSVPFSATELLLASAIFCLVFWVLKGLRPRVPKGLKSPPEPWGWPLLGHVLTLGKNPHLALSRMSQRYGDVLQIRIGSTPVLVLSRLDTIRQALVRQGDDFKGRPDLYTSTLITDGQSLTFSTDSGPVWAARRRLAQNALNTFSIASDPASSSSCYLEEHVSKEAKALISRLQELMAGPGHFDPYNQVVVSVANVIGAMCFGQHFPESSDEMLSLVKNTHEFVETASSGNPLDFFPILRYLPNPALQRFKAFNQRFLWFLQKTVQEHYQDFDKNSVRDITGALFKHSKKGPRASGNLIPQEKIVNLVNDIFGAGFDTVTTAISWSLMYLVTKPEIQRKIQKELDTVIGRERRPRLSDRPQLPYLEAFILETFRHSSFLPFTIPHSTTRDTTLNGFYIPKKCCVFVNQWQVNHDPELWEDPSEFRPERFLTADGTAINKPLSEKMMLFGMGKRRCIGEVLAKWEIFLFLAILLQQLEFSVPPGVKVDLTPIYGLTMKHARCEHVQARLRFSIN
Kind of data set: biochemical. It counts as in vitro ADME.
Text: as §1, §2, §3, §4

A further data set has as its target T3, CYP2D6 (Homo sapiens, UniProt P10635).
T3 construct: Using commercially available pooled human hepatic microsome; from tissue
Kind of data set: biochemical. It is filed as in vitro ADME.
Text: as §1, §2, §3, §4

Another data set addresses T4, CYP3A4 (Homo sapiens, UniProt P08684).
T4 construct: Using commercially available pooled human hepatic microsome; from tissue
Briefly: biochemical. It is filed as in vitro ADME.
Text: as §1, §2, §3, §4

For the next data set, the target named is T5, CYP2C9 (Homo sapiens, UniProt P11712).
T5 construct: Using commercially available pooled human hepatic microsome; from tissue
T5 sequence (P11712 whole entry): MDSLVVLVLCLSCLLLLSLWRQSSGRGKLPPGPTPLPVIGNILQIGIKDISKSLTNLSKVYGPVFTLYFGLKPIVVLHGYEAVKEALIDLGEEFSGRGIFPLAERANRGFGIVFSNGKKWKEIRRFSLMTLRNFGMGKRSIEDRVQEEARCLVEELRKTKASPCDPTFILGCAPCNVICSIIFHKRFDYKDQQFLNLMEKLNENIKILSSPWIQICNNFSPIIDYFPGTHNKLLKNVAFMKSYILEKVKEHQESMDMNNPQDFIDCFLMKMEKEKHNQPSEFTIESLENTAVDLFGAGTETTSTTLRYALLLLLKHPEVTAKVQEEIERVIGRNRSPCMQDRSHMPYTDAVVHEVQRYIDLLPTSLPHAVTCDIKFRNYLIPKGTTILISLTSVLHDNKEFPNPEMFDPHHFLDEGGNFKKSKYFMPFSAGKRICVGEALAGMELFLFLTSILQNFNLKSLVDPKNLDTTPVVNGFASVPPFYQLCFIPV
Kind of data set: biochemical. It is filed as in vitro ADME.
Text: as §1, §2, §3, §4

Another data set is described as follows: in vivo. Particulars: rat, SD rats, intravenous administration. How it is done: Test Example 13: Intravenous Administration Test
Examined experimental materials and method of intravenous administration test
(1) Animals used: SD rats were used.
(2) Rearing conditions: Pellets and sterilized tap water were fed to SD rats ad libitum.
(3) Dosage and grouping: A predetermined dosage was intravenously administered. Groups were set as follows. (Dosage varied for each compound)
Intravenous administration 0.5-1 mg/kg (n=2-3)
(4) Preparation of administration solution: Intravenous administration was performed after solubilization.
(5) Administration method: Intravenous administration was performed with a needle-equipped syringe on the caudal vein.
(6) End point: Blood was collected over time, and the plasma concentration of the compound of the present invention was measured using LC/MS/MS.
(7) Statistical analysis: As for the transition of the plasma concentration of the compound of the present invention, the total body clearance (CLtot) and the elimination half-life (t1/2, z) were calculated using nonlinear least-squares program WinNonlin®.

A further data set is described as follows: physchem. It is filed as physicochemical. The following applies: kinetic from dmso stock; 1% DMSO addition conditions; JP-1 or JP-2 solution not stated in result. The method, then:
Test Example 9: Solubility Test
A 10 mmol/L solution of the compound was prepared with DMSO, and 2 μL of the solution of the compound of the present invention was added, respectively, to 198 μL of JP-1 solution (water were added to 2.0 g of sodium chloride and 7.0 mL of hydrochloric acid to reach 1000 mL) and JP-2 solution (1 volume of water were added to 1 volume of the solution which 3.40 g of potassium dihydrogen phosphate and 3.55 g of anhydrous disodium hydrogen phosphate to reach 1000 mL). The mixture was shaked for 1 hour at a room temperature, and the mixture was filtered. The filtrate was ten-fold diluted with methanol/water=1/1(v/v), and the compound concentration in the filtrate was measured with LC/MS or SPE/MS by the absolute calibration method.

Broadly, the IC50 is the concentration that inhibits the measured activity by half. In general, clearance refers to a measure of how efficiently the substance is removed, as volume per time. By solubility is commonly meant the concentration that dissolves in the medium under given conditions.

≈ marks a conversion by molar mass, not a printed value.

T3 sequence (P10635 whole entry): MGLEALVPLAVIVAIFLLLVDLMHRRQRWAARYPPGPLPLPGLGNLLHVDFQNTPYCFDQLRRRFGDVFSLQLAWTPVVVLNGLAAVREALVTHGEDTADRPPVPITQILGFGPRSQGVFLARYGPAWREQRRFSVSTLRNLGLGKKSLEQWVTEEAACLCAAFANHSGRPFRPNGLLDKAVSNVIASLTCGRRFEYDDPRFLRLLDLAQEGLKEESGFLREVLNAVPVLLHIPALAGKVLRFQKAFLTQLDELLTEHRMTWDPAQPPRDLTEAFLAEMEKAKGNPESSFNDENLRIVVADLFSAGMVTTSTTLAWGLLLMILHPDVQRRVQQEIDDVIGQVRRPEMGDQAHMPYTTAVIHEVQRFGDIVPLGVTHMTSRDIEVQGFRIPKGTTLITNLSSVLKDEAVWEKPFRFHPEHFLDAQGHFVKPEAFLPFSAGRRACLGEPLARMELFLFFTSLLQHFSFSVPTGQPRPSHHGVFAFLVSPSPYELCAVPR
T4 sequence (P08684 whole entry): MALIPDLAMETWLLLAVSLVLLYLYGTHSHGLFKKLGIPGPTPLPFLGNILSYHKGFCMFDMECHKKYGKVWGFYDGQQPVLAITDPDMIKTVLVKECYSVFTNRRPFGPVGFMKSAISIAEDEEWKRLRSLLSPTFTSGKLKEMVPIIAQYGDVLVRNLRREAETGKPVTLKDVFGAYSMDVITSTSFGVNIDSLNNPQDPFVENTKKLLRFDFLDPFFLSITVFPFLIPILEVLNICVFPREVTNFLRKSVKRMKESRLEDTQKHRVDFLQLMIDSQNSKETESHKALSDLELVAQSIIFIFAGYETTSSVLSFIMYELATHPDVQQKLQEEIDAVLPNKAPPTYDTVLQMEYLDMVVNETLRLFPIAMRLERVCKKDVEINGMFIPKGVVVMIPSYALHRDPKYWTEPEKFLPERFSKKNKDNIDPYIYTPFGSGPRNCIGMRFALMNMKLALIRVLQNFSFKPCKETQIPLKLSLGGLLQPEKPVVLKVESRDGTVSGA

Turning to `O=C1c2c(O)c(=O)ccn2N([C@@H]2c3ccccc3SCc3c2ccc(F)c3F)[C@@H]2COCCN12` [III-2], the “% compound remaining after microsomal incubation” value in data set [1] worked out at 90.1%. Also, the IC50 at CYP2C19, on CYP1A2, on CYP2D6, on CYP3A4 and at CYP2C9 was above 20 µM in each case. Moreover, the half-life in the data set “in vivo” (read-out: elimination half-life (t1/2, z) (converted)) is 204 min. The clearance in “in vivo” (read-out: total body clearance (CLtot)) amounted to 16.4 mL/min/kg. For the same compound, the concentration in solution in the data set “physchem” (solubility) was 42.2 µM (≈ 20.4 µg/mL).
